Literature values as cited in patent publication US20140256761A1, “ENHANCED ARTEMISININ-BASED COMBINATION THERAPY FOR TREATING PARASITIC MEDIATED DISEASE” (priority 2009, published 2014).

What was measured:
[1] = generally considered
[2] = in vivo
[3] = in water or oils

Row | solubility [3] | Compound | also measured
1 | lipid-soluble | CO[C@H]1O[C@@H]2O[C@@]3(C)CC[C@H]4[C@H](C)CC[C@@H]([C@H]1C)[C@@]24OO3 [artemether, (+)-(3-alpha,5a-beta,6-beta,8a-beta, 9-alpha,12-beta,12aR)-decahydro-10-methoxy-3,6,9-trimethyl-3,12-epoxy-12H-pyrano(4,3-j)-1,2-benzodioxepin] | 
2 | water-soluble | C[C@H]1[C@H](OC(=O)CCC(=O)O)O[C@@H]2O[C@@]3(C)CC[C@H]4[C@H](C)CC[C@@H]1[C@@]24OO3 [artesunate, 3R,5aS,6R,8aS,9R,10S,12R,12aR)-Decahydro-3,6,9-trimethyl-3,12-epoxy-12H-pyrano(4,3-j)-1,2-benzodioxepin-10-ol hydrogen succinate] | 

Further lines, the compound ahead of its results:

Row | Compound | solubility [3] | also measured
3 | COc1ccc2cc3[n+](cc2c1OC)CCc1cc2c(cc1-3)OCO2 [Berberine, (5,6-Dihydro-9,10-dimethoxybenzo[g]-1,3-benzodioxolo[5,6-a]quinolizinium)] |  | toxicity [1]: non-toxic
4 | COc1cc(NC(C)CCCN)c2ncccc2c1 (centres unmarked) [Primaquine] |  | absorption from the gastro-intestinal tract [2]: readily absorbed
5 | C[C@@H]1CC[C@H]2[C@@H](C)C(=O)O[C@@H]3O[C@@]4(C)CC[C@@H]1[C@]32OO4 [artemisinin] | sparingly soluble | 
